{"source": "patent US10501472B2", "about": "“Method to isolate inoscavin a from Fulviformes fastuosus and medicinal preparation thereof to treat rhabdomyosarcoma cancer conditions” (University of Colombo, priority 2015, dated 2019)", "key": {"[1]": {"tested_on": "RD cell line (human rhabdomyosarcoma)", "experiment": "MTT assay, antiproliferative activity against RD cell line", "assay_type": "cell-based", "details": "for IC50: Homo sapiens, RD, MTT, 24 hour treatment", "description": "(§1) RD and CC-1 cell lines were cultured in DMEM supplemented with 10% heat inactivated fetal bovine serum (FBS), 3% glutamine, sodium bicarbonate and antibiotic (penicillin/streptomycin). The cells were incubated at 37° C. in a humidified CO2 incubator.\nAntiproliferative activities of inoscavin A against RD and CC-1 cells were determined using MTT (3, 4, 5-(dimethyl-thiazol-2-yl) 2-5-diphenyl tetrazolium bromide) assay. Metabolically active cells reduce MTT in to purple colored formazan crystals. Adherent cell lines were transferred with 0.12% trypsin and 0.5% EDTA and cells (2×10^5 cells/well) were seeded in 24-well plates and incubated overnight with 1 mL of the DMEM medium described above. The stock solution of inoscavin A was prepared in DMSO at a concentration of 1 mg/ml and subsequently diluted up to 1000 ng/ml in order to prepare the working standards. The resulting monolayers of RD cells and CC-1 cells (70% confluence) were treated with different concentrations of the test solution and incubated for 24 hours at 37° C.\nIn all experiments, cycloheximide (5 mM, 50 μl) was used as the positive control and negative control contained 0.25% DMSO in growth media. The culture medium was replaced with fresh medium (1 ml) after 24 hours and MTT (5 mg/ml; 100 μl) was added to each well. The cells were incubated at 37° C. for 3 hours and the medium was aspirated carefully. The remaining formazan crystals were solubilized with 750 μl of 0.05 M HCl (in 2-propanol) and absorbance was measured at 570 nm. Percentage cell viability was determined using the equation below.\n(§2) The net absorbance from the wells of the untreated cells (negative control) was taken as the 100% viability. IC50 of the test solution against RD cells was determined by regression analysis of the corresponding dose response curve. CC50 of the test solution against CC-1 cell line was also calculated using the regression analysis. Safety of the compound for normal cells was determined in terms of selectivity index (SI) by calculating the ratio of CC50/IC50. SI value>2 is considered as safe."}, "[2]": {"tested_on": "CC-1 cell line (normal epithelial cells)", "experiment": "MTT assay, cytotoxicity against normal CC-1 cell line", "assay_type": "cell-based, mice", "details": "CC50 in CC-1 cells / IC50 in RD cells", "description": "as §1\nAntiproliferative activities of inoscavin A against RD and CC-1 cells were determined using MTT (3, 4, 5-(dimethyl-thiazol-2-yl) 2-5-diphenyl tetrazolium bromide) assay. Metabolically active cells reduce MTT in to purple colored formazan crystals. Adherent cell lines were transferred with 0.12% trypsin and 0.5% EDTA and cells (2×10^5 cells/well) were seeded in 24-well plates and incubated overnight with 1 mL of the DMEM medium described above. […]\nIn all experiments, cycloheximide (5 mM, 50 μl) was used as the positive control and negative control contained 0.25% DMSO in growth media. […] The remaining formazan crystals were solubilized with 750 μl of 0.05 M HCl (in 2-propanol) and absorbance was measured at 570 nm. Percentage cell viability was determined using the equation below.\nas §2, with “Safety of the compound for normal cells was determined in terms of selectivity index (SI) by calculating the ratio of CC50/IC50. SI value>2 is considered as safe.” left out"}, "RD cells [3]": {"tested_on": "RD cells", "experiment": "Ethidium bromide/acridine orange staining for apoptosis", "assay_type": "cell-based, human", "details": "24 hours", "description": "Ethidium bromide and acridine orange staining were performed to investigate the apoptosis induced by inoscavin A against RD cells. Ethidium bromide (EB) is only occupied by cells with damaged cell membranes. Acridine orange (AO) permeates via both live and dead cells. Cells were seeded in chamber slides and the confluent layer was treated with the test solution containing inoscavin A at different concentrations for 24 hours at 37° C. as described previously. The adherent cells were washed with 200 μL of PBS and 2 μL of the dye mixture containing ethidium bromide ([…]) and acridine orange ([…]) was placed on each well of the chamber slide. Chamber slides were examined immediately under the fluorescence microscope. Images were photographed using a Nikon D 700 camera connected to the microscope."}, "RD cells [4]": {"tested_on": "RD cells", "experiment": "Microscopic examination of morphological changes of treated cells", "assay_type": "cell-based, human", "details": "highest concentration 50 ng/mL, 24 hours", "description": "The morphological changes of RD cells and CC-1 cells after the treatment with different concentrations of the test solution over 24 hours were detected by microscopic examination of cells. Morphological changes were compared with the negative and positive controls under fluorescence microscope."}}, "note": "Entries after “also recorded” stand apart in the source; their conditions may differ. Read-outs that look alike come from different tables or passages of the source.", "data": [{"smiles": "CC1=CC(=O)C2(O1)c1c(cc(/C=C/c3ccc(O)c(O)c3)oc1=O)OC2c1ccc(O)c(O)c1", "note": "(stereo not shown) [inoscavin A, 2-(3,4-dihydroxyphenyl)-6-[(E)-2-(3,4-dihydroxyphenyl)ethenyl]-5′-methylspiro[2H-furo[3,2-c]pyran-3,2′-furan]-3′,4-dione]", "values": [{"measurement": "IC50", "setting": "[1]; mean of three independent sample preparations, read-out: IC50 against RD cells", "value": 28, "unit": "nM"}, {"measurement": "IC50", "setting": "[1]; read-out: IC50 against RD cell line", "value": 0.0128, "unit": "µg/mL"}, {"measurement": "maximum inhibition of cell growth", "setting": "[1]; RD cells, concentrations over 60 ng/mL to 100 ng/mL", "value": 75, "unit": "%"}, {"measurement": "antiproliferative activity relative to mangiferin", "setting": "[1]; RD cells, inoscavin A versus mangiferin", "value": "approximately 2500 times"}, {"measurement": "selectivity index (SI), ratio of CC50/IC50", "setting": "[2]", "value": 6185.18}, {"measurement": "apoptosis induction (AO/EB staining)", "setting": "RD cells [3]", "value": "confirmed the apoptosis induced by inoscavin A; also recorded: mediated through apoptosis"}, {"measurement": "morphological changes of RD cells", "setting": "RD cells [4]", "value": "detached and round shape dead cells"}]}]}
